Ki data for 69 molecules are collected here from the kinase profiling compilation of Christmann-Franck et al. (2016).

SMILES strings stand for the structures.

The target in this assay is SGK1 (human) (UniProt O00141). The assay can be described thus: Flashplate.
Sequence of SGK1 (human) (O00141 whole entry, looked up): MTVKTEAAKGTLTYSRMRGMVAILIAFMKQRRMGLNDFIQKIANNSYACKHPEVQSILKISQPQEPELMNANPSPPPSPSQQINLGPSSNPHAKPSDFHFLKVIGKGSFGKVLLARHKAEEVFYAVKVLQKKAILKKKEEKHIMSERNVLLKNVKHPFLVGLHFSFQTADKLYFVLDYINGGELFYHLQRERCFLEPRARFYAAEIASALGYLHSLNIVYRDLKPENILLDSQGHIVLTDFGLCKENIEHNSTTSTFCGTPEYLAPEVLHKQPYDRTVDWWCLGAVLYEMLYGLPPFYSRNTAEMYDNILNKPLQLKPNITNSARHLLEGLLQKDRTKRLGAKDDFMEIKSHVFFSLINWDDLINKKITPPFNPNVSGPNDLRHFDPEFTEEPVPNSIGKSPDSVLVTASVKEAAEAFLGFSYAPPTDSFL

In the case of `Cc1cc(Cl)ccc1NC(=S)NNC(=O)C(O)(c1ccccc1)c1ccccc1`, the Ki was 6.31 µM.
Molecule `C/C(=N/NC(=N)N)c1cc(NC(=O)NCCCN(C)CCCNC(=O)Nc2cc(/C(C)=N\NC(=N)N)cc(/C(C)=N/NC(=N)N)c2)cc(/C(C)=N/NC(=N)N)c1` yielded an inhibition constant (Ki) above 10 µM.
For `Cc1cccc(NC(=O)Nc2ccc(-c3csc4ncnc(N)c34)cc2)c1` the value was above 10 µM.
Under `NC(=O)c1sc(-n2cnc3ccccc32)cc1OCc1ccccc1C(F)(F)F` stands above 10 µM; under `COc1cc(-c2ccc3[nH]nc(C(=O)Nc4ccccc4)c3c2)ccc1O`, above 10 µM.
Under `CC(=O)c1cccc(-c2cnc3[nH]ccc3c2)c1` stands above 10 µM; under `NC(=O)c1sc2c(Br)ccc(Cl)c2c1N`, 3.16 µM.
With `Cc1ccc(F)c(NC(=O)Nc2ccc(-c3nsc4ncnc(N)c34)cc2)c1`, the Ki is above 10 µM.
In turn, `NC[C@@H](NC(=O)c1ccc(-c2ccncc2)cc1)c1ccccc1` showed a Ki of 0.794 µM.
For `CCOC(=O)c1cn(-c2ccc(O)cc2C)c2cc(-c3ccncc3)ccc2c1=O` the value was above 10 µM; for `Cc1cnc(Nc2cccc(S(N)(=O)=O)c2)nc1Nc1ccc(OCC(N)=O)cc1`, 6.31 µM; for `Cc1ccc(F)c(NC(=O)Nc2ccc(-c3cncc4c3c(N)nn4C)cc2)c1`, above 10 µM.
As to `NC(=O)c1cccc2[nH]c(-c3ccncc3)nc12`, the Ki was found to be 6.31 µM. In other words, the single-digit micromolar range.
Under `CN(C(=O)C1CCCCC1)c1ccc2c(c1)nc(NC(=O)c1ccc(C#N)cc1)n2C` stands above 10 µM; under `Cc1c[nH]c2nccc(Oc3c(F)cc(Nc4cc(Cl)nc(N)n4)cc3F)c12`, 0.251 µM.
`COCCOCC#Cc1cc(-c2n[nH]c3c2C(=O)c2cc(CN4CCN(C)CC4)ccc2-3)cs1` registered a Ki above 10 µM.
For `Nc1nc2ccc(-c3c(-c4ccc(F)cc4)nc4sccn34)cc2n1CC1CC1` the value was above 10 µM; for `Cc1ccc(CNc2ccc3nnc(-c4ccccc4)n3n2)cc1`, above 10 µM; for `Cc1n[nH]c2sc(C(=O)NCCc3ccc(Cl)cc3)cc12`, 3.98 µM.
For `COc1cc(/C=C2\SC(=O)NC2=O)ccc1O` the value was 3.98 µM.
For `O=C(Cc1ccccc1)Nc1cccc(-c2nc3sccn3c2-c2ccnc(Nc3ccc(N4CCOCC4)cc3)n2)c1` the value was above 10 µM.
As to `Cc1cc(OC2CCCC2)c(NC(=O)Nc2cnc(C#N)cn2)cc1Cl`, the inhibition constant Ki is above 10 µM.
Under `NC(=O)c1cc2c(-c3ccc(F)cc3F)cncc2s1` stands 1.26 µM.
For `Cn1cc(-c2cnc(N)c3c(-c4ccc(NC(=O)Nc5cccc(F)c5)cc4)csc23)cn1` the value was 2 µM.
Under `Nc1ncnn2ccc(C(=O)Nc3ccc(NC(=O)Nc4cccc(F)c4)cc3)c12` stands above 10 µM.
For the molecule `CN1CC[C@@H](c2c(O)cc(O)c3c(=O)cc(-c4ccccc4Cl)oc23)[C@@H](O)C1`, the Ki is above 10 µM.
For `NC(=O)c1cc2c(Oc3ccc(Br)cc3)cncc2s1` the value was 2 µM; for `Brc1ccc2[nH]nc(-c3ccccc3)c2c1`, above 10 µM.
For `Brc1ccc2c(c1)-c1[nH]ncc1C2` the value was above 10 µM; for `OCCCNc1ncnc2[nH]cc(-c3ccccc3)c12`, above 7.94 µM; for `Cc1c(-c2ccc3[nH]nc(N)c3c2)nnn1Cc1ccccc1`, 0.316 µM.
The molecule `Cn1cc(/C=C2\C(=O)Nc3cccnc32)c2ccccc21` displayed a Ki of 2.51 µM.
Under `Nc1nccc2scc(-c3ccc(NC(=O)Nc4ccccc4C(F)(F)F)cc3)c12` stands above 10 µM.
Under `COc1cccc([C@H](C)NC(=O)c2ccc(-c3ccncc3)cc2)c1` stands above 10 µM; under `CC(C)(C)c1n[nH]c2c1C(c1ccccc1F)C(C#N)=C(N)O2` (centres undefined), above 10 µM.
Under `COc1cc(S(C)(=O)=O)c(OC)cc1CC(=O)Nc1cc(N)c(C#N)c(OC(C)C)n1` stands above 10 µM; under `COc1cc(C)c(Cl)cc1NC(=O)Nc1cnc(C#N)cn1`, above 10 µM; under `CC(C)OC1=NNC(=O)/C1=C/c1c[nH]c2ccccc12`, above 10 µM.
Molecule `CCCS(=O)(=O)Nc1ccc(-c2ccc3[nH]nc(NC(=O)CC)c3c2)cc1` gave a Ki of 7.94 µM.
For `FC(F)(F)c1ccc(Cn2cc(-c3ccc4[nH]ncc4c3)nn2)c(C(F)(F)F)c1` the value was above 10 µM; for `CC(C)(C)C(=O)Oc1ccc2c(c1)nc(NC(=O)c1cccc([N+](=O)[O-])c1)n2CCCO`, above 10 µM.
For `CC(=O)Nc1c(C(N)=O)sc2ccc(Cl)c(Cl)c12` the value was 3.98 µM; for `OCCNc1cc2cc(-c3ccccc3)ccc2cn1`, above 10 µM; for `OCCCn1cnc(-c2ccc(F)cc2)c1-c1ccncc1`, above 10 µM.
As to `CCOc1nc(NC(=O)Cc2cc(OC)ccc2OC)cc(N)c1C#N`, the Ki was above 10 µM.
Take `S=c1[nH]nc2c3c4c(sc3n3c(=S)[nH]nc3n12)CCC4`: the Ki came out at 1.58 µM.
Under `CC1=NN(c2ccccc2)C(=O)/C1=C/c1c(C)c(C#N)c2nc3ccccc3n2c1O` stands above 10 µM; under `CCc1c(-c2ccc(C(C)(C)O)cc2)[nH]c2nccnc12`, above 10 µM; under `CC(C)Cn1c(N)nc2c(F)cc(-c3c(-c4ccc(F)cc4)nc4sccn34)cc21`, above 10 µM.
For `OCC(CO)Nc1ncnc2[nH]cc(-c3ccccc3)c12`, the Ki was 7.94 µM.
Under `CCCCOc1ncnc2[nH]cc(-c3ccccc3)c12` stands 2.51 µM.
Molecule `O=C(Nc1cccc(-c2nc3sccn3c2-c2ccnc(Nc3cccc(N4CCCC4=O)c3)n2)c1)c1c(F)cccc1F` yielded an inhibition constant Ki above 10 µM.
Under `Cn1cc(-c2ccncn2)c(-c2ccc(F)cc2)n1` stands above 10 µM; under `CCN1C(=O)N(C)c2cnc(Nc3ccc(C(=O)NC4CCN(C)CC4)cc3OC)nc2N1C1CCCC1`, above 10 µM; under `Cc1cc(C)cc(NC(=O)Nc2ccc(-c3cccc4c3CNC4=O)c(C)c2)c1`, above 10 µM.
For `CCCCNc1ccc2c3c(cccc13)C(=O)N(CCNCCO)C2=O` the value was above 10 µM; for `N#Cc1ncc2nc1OCCCCCOc1cc(OCC(O)CO)c(Cl)cc1NC(=O)N2` (centres undefined), above 10 µM; for `Cc1cccc(NC(=O)Nc2ccc(-c3csc4c(-c5cnn(C[C@@H](C)O)c5)cnc(N)c34)cc2)c1`, above 10 µM.
For `COC(=O)c1cc2c(-c3cccc(F)c3)cncc2s1` the value was above 10 µM; for `CCN1CCN(CCCC(=O)Nc2n[nH]c3nnc(-c4cccc(F)c4F)cc23)CC1`, above 10 µM.
The molecule `CNC(=O)c1ccccc1Sc1ccc2c(/C=C/c3ccccn3)n[nH]c2c1` had a Ki above 10 µM.
In turn, `COc1cc(-c2ccc3c(c2)Nc2ccc(C(=O)NCCNC(C)=O)cc2NC3=O)ccc1O` came in with a Ki of 10 µM.
Under `Clc1ccc(-c2n[nH]cc2-c2ccncn2)cc1Cl` stands above 10 µM; under `COc1ccc(-c2ccc(NC(=O)Nc3cccc(Br)c3)cc2)c2c(N)noc12`, above 10 µM; under `Nc1ncnc2c1c(-c1cccc(OCc3ccccc3)c1)cn2[C@H]1CC[C@H](N2CCCC2)CC1`, above 10 µM.
For `NCCCOc1cc2c(c(-c3ccc(Nc4nc5ccccc5o4)cc3)c1)CNC2=O` the value was 7.94 µM; for `COc1cccc(-c2cc3c(=O)[nH]c4ccccc4n3c2)c1`, above 10 µM; for `N[C@@H](Cc1cccc2ccccc12)C(=O)Nc1cncc(/C=C/c2ccncc2)c1`, above 10 µM.
Under `CCOc1nc(C(=O)NCc2cccnc2)cc(N)c1C#N` stands above 10 µM.

The Ki is a measure of affinity in units of concentration, obtained from inhibition or displacement. Lower therefore signals a stronger hold on the target.
